Experiments:
Human CARM1 (PRMT4) = target: T1, Human CARM1 (PRMT4) (Homo sapiens, UniProt Q86X55); test: CARM1 Biochemical Assay (3H-SAM Flashplate, peptide substrate); settings: single experiment or average of multiple experiments
T1 construct: Flag-CARM1-His; made in house; host or cells: HEK 293F cells (BacMam baculovirus)
T1 sequence (Q86X55 1-585 isoform Q86X55-1): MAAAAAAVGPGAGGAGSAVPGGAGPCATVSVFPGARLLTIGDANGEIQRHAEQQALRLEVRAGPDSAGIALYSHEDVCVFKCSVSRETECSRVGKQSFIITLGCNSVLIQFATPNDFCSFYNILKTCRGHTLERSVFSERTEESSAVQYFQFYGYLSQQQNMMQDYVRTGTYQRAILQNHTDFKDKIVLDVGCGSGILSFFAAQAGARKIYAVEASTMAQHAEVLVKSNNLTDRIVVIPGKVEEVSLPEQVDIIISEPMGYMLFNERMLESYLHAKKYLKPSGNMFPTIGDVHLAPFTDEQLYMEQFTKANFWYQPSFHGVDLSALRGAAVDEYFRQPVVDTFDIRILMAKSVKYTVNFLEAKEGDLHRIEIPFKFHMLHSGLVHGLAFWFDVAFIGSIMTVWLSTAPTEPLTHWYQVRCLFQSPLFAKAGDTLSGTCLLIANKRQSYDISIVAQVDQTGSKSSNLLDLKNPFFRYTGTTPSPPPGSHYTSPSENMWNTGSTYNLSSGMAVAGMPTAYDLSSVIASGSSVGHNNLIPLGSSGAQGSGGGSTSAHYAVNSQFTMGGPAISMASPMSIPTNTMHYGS
In short: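 Flag-CARM1-His from baculovirus was pre-incubated with compound for 30 min at room temperature in 20 mM Bicine pH 7.6, then reacted with 3H-SAM and a biotinylated H3(16-30) R26-monomethyl peptide.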

human PRMT1 = target: T2, human PRMT1 (Homo sapiens, UniProt Q99873); test: PRMT1 Biochemical Assay (3H-SAM Flashplate, peptide substrate); settings: single experiment or average of multiple experiments
T2 construct: GST-tagged PRMT1; made in house; host or cells: High Five insect cells (baculovirus)
In short: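 GST-tagged PRMT1 from baculovirus-infected cells, preincubated with compounds 30 min at room temperature in 20 mM Bicine pH 7.6, 1 mM TCEP, 0.005% BSG, 0.002% Tween 20. Reaction started with ³H-SAM plus biotinylated peptide, stopped with 300 µM cold SAM.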

T2 sequence (Q99873 with tags, fused parts or gaps): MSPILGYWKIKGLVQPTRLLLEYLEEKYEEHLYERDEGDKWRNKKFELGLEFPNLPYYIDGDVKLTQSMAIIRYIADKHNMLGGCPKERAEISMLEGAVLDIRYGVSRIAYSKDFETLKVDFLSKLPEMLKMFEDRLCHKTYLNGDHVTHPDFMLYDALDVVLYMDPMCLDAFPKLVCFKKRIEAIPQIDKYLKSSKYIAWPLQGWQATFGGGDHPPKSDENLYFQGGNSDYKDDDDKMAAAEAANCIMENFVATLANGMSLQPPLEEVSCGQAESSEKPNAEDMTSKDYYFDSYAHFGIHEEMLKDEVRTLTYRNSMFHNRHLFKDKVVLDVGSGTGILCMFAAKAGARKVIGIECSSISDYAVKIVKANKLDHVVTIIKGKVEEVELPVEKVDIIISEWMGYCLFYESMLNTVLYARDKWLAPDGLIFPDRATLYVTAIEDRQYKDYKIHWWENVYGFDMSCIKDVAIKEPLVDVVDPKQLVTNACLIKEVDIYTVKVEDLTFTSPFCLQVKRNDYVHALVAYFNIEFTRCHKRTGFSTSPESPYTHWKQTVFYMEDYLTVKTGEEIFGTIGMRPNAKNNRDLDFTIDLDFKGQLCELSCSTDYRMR

## CN(CCN)Cc1c[nH]nc1-c1ccc(F)cc1 [Compound 1]
Human CARM1 (PRMT4)
  IC50: 1350 nM

## CN(CCN)Cc1cn(C)nc1-c1ccc(F)cc1 [Compound 3]
Human PRMT1
  IC50: 58.1 nM

## CN(CCN)Cc1cnn(C)c1-c1ccc(F)cc1 [Compound 4]
Human CARM1 (PRMT4)
  IC50: 742 nM
Human PRMT1
  IC50: 152 nM

## COCCn1cc(CN(C)CCN)c(-c2ccc(F)cc2)n1 [Compound 5]
Human PRMT1
  IC50: 1190 nM

## CCN(CCNC)Cc1c[nH]nc1-c1ccc(F)cc1 [Compound 9]
Human CARM1 (PRMT4)
  IC50: 2810 nM

## CNCCN(C)Cc1cnn(C)c1-c1ccc(F)cc1 [Compound 10]
Human CARM1 (PRMT4)
  IC50: 1190 nM

## CNCCN(C)Cc1cnn(CC2CCOCC2)c1-c1ccc(F)cc1 [Compound 12]
Human CARM1 (PRMT4)
  IC50: 4840 nM

## CNCCN(C)Cc1c[nH]nc1-c1cccc(N)c1 [Compound 32]
Human CARM1 (PRMT4)
  IC50: 1130 nM

## CNCCN(C)Cc1c[nH]nc1-c1ccc(CC#N)cc1 [Compound 34]
Human CARM1 (PRMT4)
  IC50: 1370 nM

## CNCCN(C)Cc1c[nH]nc1-c1cccc(OC(F)(F)F)c1 [Compound 39]
Human CARM1 (PRMT4)
  IC50: 2110 nM

## CNCCN(C)Cc1c[nH]nc1-c1cccc(NC(C)=O)c1 [Compound 42]
Human CARM1 (PRMT4)
  IC50: 2240 nM

## CNCCN(C)Cc1c[nH]nc1-c1cccc(C(C)=O)c1 [Compound 44]
Human CARM1 (PRMT4)
  IC50: 1090 nM

## CNCCN(C)Cc1c[nH]nc1-c1ccc(-c2ccccc2)cc1 [Compound 47]
Human CARM1 (PRMT4)
  IC50: 28.3 nM

## CNCCN(C)Cc1c[nH]nc1-c1ccccc1F [Compound 48]
Human CARM1 (PRMT4)
  IC50: 5620 nM

## CC(C)Oc1ccc(-c2n[nH]cc2CN(C)CCN)cc1 [Compound 67]
Human CARM1 (PRMT4)
  IC50: 247 nM

## CN(CCN)Cc1n[nH]cc1-c1ccc(F)cc1 [Compound 69]
Human CARM1 (PRMT4)
  IC50: 3920 nM
Human PRMT1
  IC50: 51.1 nM

## CN(CCN)Cc1c[nH]nc1-c1cccc(C#N)c1 [Compound 70]
Human CARM1 (PRMT4)
  IC50: 3630 nM
Human PRMT1
  IC50: 200 nM

## CN(CCN)Cc1c[nH]nc1-c1cccc(F)c1 [Compound 71]
Human CARM1 (PRMT4)
  IC50: 715 nM
Human PRMT1
  IC50: 18.8 nM

## CN(CCN)Cc1c[nH]nc1-c1ccccc1F [Compound 72]
Human CARM1 (PRMT4)
  IC50: 7040 nM
Human PRMT1
  IC50: 278 nM

## CN(CCN)Cc1c[nH]nc1-c1ccccc1 [Compound 73]
Human CARM1 (PRMT4)
  IC50: 2900 nM
Human PRMT1
  IC50: 126 nM

## CN(CCN)Cc1c[nH]nc1-c1ccc(C(C)(C)C)cc1 [Compound 74]
Human CARM1 (PRMT4)
  IC50: 3530 nM
Human PRMT1
  IC50: 14.9 nM

## CC(C)N(CCN)Cc1c[nH]nc1-c1ccc(F)cc1 [Compound 75]
Human PRMT1
  IC50: 616 nM

## CN(CCN)Cc1cn(C2COC2)nc1-c1ccc(F)cc1 [Compound 77]
Human CARM1 (PRMT4)
  IC50: 4090 nM
Human PRMT1
  IC50: 215 nM

## NCCN(Cc1c[nH]nc1-c1ccc(F)cc1)C1CC1 [Compound 78]
Human PRMT1
  IC50: 328 nM

## CN(CCN)Cc1cnn(C2COC2)c1-c1ccc(F)cc1 [Compound 81]
Human CARM1 (PRMT4)
  IC50: 1630 nM
Human PRMT1
  IC50: 435 nM

## CN(CCN)Cc1c[nH]nc1-c1ccc(N2CCNCC2)cc1 [Compound 82]
Human CARM1 (PRMT4)
  IC50: 9010 nM
Human PRMT1
  IC50: 96.1 nM

## CN(CCN)Cc1nn(C)cc1-c1ccc(C#N)cc1 [Compound 83]
Human CARM1 (PRMT4)
  IC50: 1130 nM
Human PRMT1
  IC50: 30.3 nM

## CN(CCN)Cc1c[nH]nc1-c1ccc(C(F)(F)F)cc1C(F)(F)F [Compound 85]
Human PRMT1
  IC50: 234 nM

## CN(CCN)Cc1c[nH]nc1-c1ccc(Cl)cc1Cl [Compound 86]
Human CARM1 (PRMT4)
  IC50: 4190 nM
Human PRMT1
  IC50: 24 nM

## COc1ccc(-c2n[nH]cc2CN(C)CCN)c(OC)c1 [Compound 87]
Human CARM1 (PRMT4)
  IC50: 4380 nM
Human PRMT1
  IC50: 172 nM

## Cc1ccc(-c2n[nH]cc2CN(C)CCN)c(C)c1 [Compound 88]
Human CARM1 (PRMT4)
  IC50: 5220 nM
Human PRMT1
  IC50: 128 nM

## CN(CCN)Cc1c[nH]nc1-c1ccc(F)cc1Cl [Compound 89]
Human CARM1 (PRMT4)
  IC50: 5980 nM
Human PRMT1
  IC50: 67.4 nM

## Cc1ccc(-c2n[nH]cc2CN(C)CCN)c(Cl)c1 [Compound 90]
Human CARM1 (PRMT4)
  IC50: 6920 nM
Human PRMT1
  IC50: 41.3 nM

## Cc1ccc(Cl)c(-c2n[nH]cc2CN(C)CCN)c1 [Compound 91]
Human PRMT1
  IC50: 272 nM

## CN(CCN)Cc1c[nH]nc1-c1ccc(C(F)(F)F)cc1 [Compound 92]
Human CARM1 (PRMT4)
  IC50: 690 nM
Human PRMT1
  IC50: 5.69 nM

## CN(CCN)Cc1c[nH]nc1-c1ccc(OC(F)(F)F)cc1 [Compound 93]
Human CARM1 (PRMT4)
  IC50: 1830 nM
Human PRMT1
  IC50: 4.64 nM

## CN(CCN)Cc1c[nH]nc1-c1ccc(OC(F)F)cc1 [Compound 94]
Human CARM1 (PRMT4)
  IC50: 873 nM
Human PRMT1
  IC50: 7.97 nM

## CN(CCN)Cc1c[nH]nc1-c1ccc(Cl)cc1 [Compound 95]
Human CARM1 (PRMT4)
  IC50: 392 nM
Human PRMT1
  IC50: 7.84 nM

Reference: US9776972B2, “Pyrazole derivatives as arginine methyltransferase inhibitors and uses thereof” (priority 2013, dated 2017)
